Patent US7871808B2, “Isolated microorganism having an ability to produce L-histidine” (priority 1999, dated 2011)
Counter-ions that a name gives are not always drawn.

Tested on: mutant strain H-9341
Assay: Comparative test of growth on agar plate culture medium containing primaquine (mutant strain)
Assay type: cell-based, Escherichia coli
Details: 150 mg/liter primaquine disodium salt in agar plate medium, 1 to 10 cells/cm^2, 33° C. for 4 days

## COc1cc(NC(C)CCCN)c2ncccc2c1 (stereo not shown) [Primaquine disodium salt, primaquine disodium salt]
  Growth or non-growth of the strain on agar plate medium: +
